Source: patent US10047059B2, “Substituted quinoxalines for inhibiting kinase activity” (NEUPHARMA, INC., priority 2012, dated 2018)

Experiments:
BRAF V600E = target: T1, BRAF V600E (Homo sapiens, UniProt P15056, V600E); experiment: Z'-LYTE kinase inhibition assay against BRAF V600E; format: biochemical; settings: Z'-LYTE method
T1 construct: purchased Invitrogen
Description: (§1) Inhibitory activities Inhibitory activities of compounds against BRAF, and BRAF V600E were measured by Invitrogen using Z′-LYTE® Method as briefly described in the following. 4× Test compounds are dissolved in 1% DMSO. […] ATP solutions are diluted to a 4×ATP working concentration in Kinase Buffer (50 mM HEPES pH 7.5, 0.01% BRIJ-35, 10 mM MgCl2, 1 mM EGTA). Reaction started by 30-second shaking of mixture consisting of 2.5 μL 4× test compound, […] and 2.5 μL 4×ATP Solution on Bar-coded Corning, low volume NBS, black 384-well plate (Corning Cat. #3676). Then the mixture was incubated for 60-minute at room temperature for the kinase reaction, followed by addition of 5 μL of a 1:1024 dilution of development reagent A and 30-second plate shake. The mixture was then incubated for another 60-minute at room temperature for development reaction. Fluorescence was read by plate reader. IC50 was calculated by plotting the concentration of compound vs the percentage of inhibition in treated wells using GraphPad Prism 5.
(§2) Table 2 and 3 show % inhibition at 1 μM of several compounds of the invention against BRAF and BRAF V600E, respectively, using Z′-LYTE® method.
The scale utilized in Table 4 is as follows: +++ less than 100 nM; and ++ greater than 100 nM.

Colo205 cells = experiment: Inhibition of cancer cell growth, MTT or MTS assay, Colo205; format: cell-based; settings: Homo sapiens, COLO 205, 72 h incubation
Description: (§3) Inhibition of cell growth by compounds was measured using MTT or MTS assay. Tumor cell lines were purchased from ATCC (American Type Culture Collection, Manassas, Va.). All cell lines were maintained in RPMI 1640 (Hyclone) supplemented with 10% fetal bovine serum (FBS, Hyclone), glutamine (2 mM, Hyclone), and antibiotics (penicillin 100 U/mL and streptomycin 50 μg/mL) at 37° C. in a humidified atmosphere of 5% CO2 in air. Taxol (as a positive control, Sigma) and compounds were dissolved in DMSO (Sigma), and the final concentration of DMSO in the medium was 1%. Tumor cells were plated in 96-well plates at densities of about 2000 (A375) or 4000 (A549 and Colo205) cells/well of a 96-well plate and allowed to adhere/grow for 24 h. They were then treated with various concentrations of drug and incubated for 72 h. For MTT method, medium was then removed by inverting and tapping the plates. 100 μL of MTT (0.5 mg/ml) was added to each well followed by an incubated at 37° C. for 4 h. MTT was then removed and 200 μL of DMSO was added to each well, and the ODs at 570 nm were measured after a 5 second shaking cycle in a 96-well spectrophotometer. For MTS method, 20 μL MTS (CellTiter 96 Aqueous One Solution, Promega) was added to each well followed by an incubated at 37° C. for 2-4 h, solutions were then directly put in a 96-well spectrophotometer, and the ODs at 490 nm were measured.
(§4) All concentrations of compounds were tested in triplicate and controls were averaged over 4 wells. IC50 was calculated by plotting the concentration of compound vs the percentage of inhibition in treated wells using GraphPad Prism 5. […] The scale utilized in Tables 7-9 is as follows: +++ less than 1000 nM; ++ between 1000 nM and 5000 nM; and + greater than 5000 nM. The scale utilized in […]

KDR (VEGFR2) = target: T2, KDR (VEGFR2) (Homo sapiens, UniProt P35968); experiment: Z'-LYTE kinase inhibition assay against KDR; format: biochemical; settings: Z'-LYTE method
T2 construct: purchased Invitrogen
T2 sequence (P35968 20-1356): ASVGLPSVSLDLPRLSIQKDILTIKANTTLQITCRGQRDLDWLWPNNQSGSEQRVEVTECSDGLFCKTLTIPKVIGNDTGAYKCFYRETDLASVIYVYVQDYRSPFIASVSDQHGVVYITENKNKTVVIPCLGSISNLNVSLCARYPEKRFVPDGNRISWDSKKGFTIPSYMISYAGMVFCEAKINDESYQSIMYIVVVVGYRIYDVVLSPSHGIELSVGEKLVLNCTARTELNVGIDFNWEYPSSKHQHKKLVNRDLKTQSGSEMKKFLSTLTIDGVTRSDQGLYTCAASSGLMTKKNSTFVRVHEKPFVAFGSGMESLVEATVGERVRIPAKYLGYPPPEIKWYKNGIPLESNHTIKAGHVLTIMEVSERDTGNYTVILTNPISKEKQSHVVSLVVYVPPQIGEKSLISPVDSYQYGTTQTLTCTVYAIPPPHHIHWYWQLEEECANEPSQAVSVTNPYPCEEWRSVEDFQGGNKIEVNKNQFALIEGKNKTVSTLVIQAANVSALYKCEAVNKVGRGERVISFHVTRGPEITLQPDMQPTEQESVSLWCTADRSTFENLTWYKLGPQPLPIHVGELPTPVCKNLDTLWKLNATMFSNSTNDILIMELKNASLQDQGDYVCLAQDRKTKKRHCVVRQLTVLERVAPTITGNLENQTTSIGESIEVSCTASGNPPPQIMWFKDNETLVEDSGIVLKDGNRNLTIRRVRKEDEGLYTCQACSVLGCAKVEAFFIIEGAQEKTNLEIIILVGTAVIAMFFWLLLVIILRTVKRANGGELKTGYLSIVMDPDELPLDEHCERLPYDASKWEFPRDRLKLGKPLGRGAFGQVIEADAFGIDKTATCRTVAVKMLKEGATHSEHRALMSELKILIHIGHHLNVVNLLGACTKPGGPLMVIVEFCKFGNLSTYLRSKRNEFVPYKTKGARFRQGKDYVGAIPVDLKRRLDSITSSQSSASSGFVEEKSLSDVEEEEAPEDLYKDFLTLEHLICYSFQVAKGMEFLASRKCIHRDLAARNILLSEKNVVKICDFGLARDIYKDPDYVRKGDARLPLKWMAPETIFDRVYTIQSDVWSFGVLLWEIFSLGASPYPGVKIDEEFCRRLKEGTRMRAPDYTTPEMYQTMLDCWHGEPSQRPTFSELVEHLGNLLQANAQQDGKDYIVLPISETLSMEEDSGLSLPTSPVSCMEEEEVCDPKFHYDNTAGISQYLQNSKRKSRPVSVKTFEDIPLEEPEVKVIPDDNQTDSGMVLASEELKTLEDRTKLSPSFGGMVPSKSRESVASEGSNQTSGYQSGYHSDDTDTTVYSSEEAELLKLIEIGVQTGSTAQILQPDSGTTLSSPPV
Description: Inhibitory activities of compounds against KDR (VEGFR2) were also measured by Invitrogen using Z′-LYTE® Method as described above with the following modification. The 2×KDR (VEGFR2)/Tyr 01 mixture is prepared in 50 mM HEPES pH 7.5, 0.01% BRIJ-35, 10 mM MgCl2, 1 mM EGTA. The final 10 μL Kinase Reaction consists of 0.5-11.7 ng KDR (VEGFR2) and 2 μM Tyr 01 in 50 mM HEPES pH 7.5, 0.01% BRIJ-35, 10 mM MgCl2, 1 mM EGTA. After the 1 hour Kinase Reaction incubation, 5 μL of a 1:256 dilution of Development Reagent B is added.
The scale utilized in Table 6 is as follows: +++ less than 100 nM; and ++ greater than 100 nM

A549 cells = experiment: Inhibition of cancer cell growth, MTT or MTS assay, A549; format: cell-based; settings: Homo sapiens, 72 h incubation
Description: as §3, §4

Colo205 tumor xenograft = experiment: Inhibition of tumor growth in Colo205 tumor xenograft model; format: in vivo, BALB/c female nude mice; settings: 30 mg/kg, qd X 21, i.p.
Description: Cells were implanted in BALB/c female nude mice and grown as tumor xenografts. When tumors achieved 150-250 mm^3, mice were assigned into treatment and control groups using randomized block design based upon their tumor volumes. Each group contained 6 tumor-bearing mice. Tumors were measured twice weekly in two dimensions using a caliper, and the tumor volume was calculated from two-dimensional measurements using the equation V=0.5×a×b^2 where a and b are the long and short diameters of the tumor, respectively. Relative tumor volume (RTV) was defined as TVt/TVi, the ratio of the volume on a given day (TVt) and the volume at the start of treatment (TVi). Relative tumor growth rate (T/C) was defined as RTVT/RTVC, the ratio of relative tumor volume of treatment group (RTVT) and relative tumor volume of control group (RTVC) on a given day. Inhibition of tumor growth in a Colo205 tumor xenograft model is shown below in Table 10 for compound C14.

A375 cells = experiment: Inhibition of cancer cell growth, MTT or MTS assay, A375; format: cell-based; settings: Homo sapiens, A-375, 72 h incubation
Description: as §3, §4

BRAF = target: T3, BRAF (Homo sapiens, UniProt P15056); experiment: Z'-LYTE kinase inhibition assay against BRAF; format: biochemical; settings: Z'-LYTE method
T3 construct: purchased Invitrogen
T3 sequence (P15056 whole entry): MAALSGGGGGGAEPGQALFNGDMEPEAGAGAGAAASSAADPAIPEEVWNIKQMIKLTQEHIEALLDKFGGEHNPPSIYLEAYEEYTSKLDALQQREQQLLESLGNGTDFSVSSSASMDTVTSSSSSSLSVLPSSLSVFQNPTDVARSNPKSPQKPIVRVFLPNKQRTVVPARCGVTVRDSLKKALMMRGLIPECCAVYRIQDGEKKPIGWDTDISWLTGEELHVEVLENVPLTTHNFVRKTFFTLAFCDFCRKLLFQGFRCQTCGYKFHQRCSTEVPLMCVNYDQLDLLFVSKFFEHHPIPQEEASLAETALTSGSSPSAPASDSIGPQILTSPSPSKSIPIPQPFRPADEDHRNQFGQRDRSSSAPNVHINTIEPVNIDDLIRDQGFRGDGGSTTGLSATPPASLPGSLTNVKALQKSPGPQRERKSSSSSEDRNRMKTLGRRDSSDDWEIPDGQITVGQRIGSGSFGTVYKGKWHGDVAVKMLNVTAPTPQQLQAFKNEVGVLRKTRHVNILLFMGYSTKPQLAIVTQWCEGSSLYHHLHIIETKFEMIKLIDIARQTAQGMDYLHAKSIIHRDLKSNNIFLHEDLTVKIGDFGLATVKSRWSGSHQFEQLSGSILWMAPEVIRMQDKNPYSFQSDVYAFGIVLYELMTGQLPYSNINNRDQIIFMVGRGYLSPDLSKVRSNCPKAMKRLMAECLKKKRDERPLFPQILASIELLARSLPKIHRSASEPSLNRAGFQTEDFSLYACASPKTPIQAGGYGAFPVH
Description: as §1, §2

T1 sequence (P15056 whole entry V600E): as the sequence (P15056 whole entry) above, with V600E counted along it

inhibition at 1 µM (BRAF V600E) [%] | IC50 (BRAF V600E) [nM] | IC50 (Colo205 cells) [nM] | inhibition at 1 µM (KDR (VEGFR2)) [%] | IC50 (KDR (VEGFR2)) [nM] | IC50 (A549 cells) [nM] | IC50 (A375 cells) [nM] | inhibition at 1 µM (BRAF) [%] | SMILES | T/C (relative tumor growth rate) (Colo205 tumor xenograft) [%] | Tumor Volume Post-treatment (Colo205 tumor xenograft) [mm3] | Tumor Volume Pre-treatment (Colo205 tumor xenograft; baseline) [mm3]
> 89 | > 100 | < 1000 | > 89 | > 100 | < 1000 | < 1000 | < 70 | O=C(Nc1ccc(C(=O)c2ccc3ncc(N4CCNCC4)nc3c2)cc1)Nc1ccc(F)c(C(F)(F)F)c1 [Compound C14, 1-(4-fluoro-3-(trifluoromethyl)phenyl)-3-(4-(3-(piperazin-1-yl)quinoxaline-6-carbonyl)phenyl)urea] | 65 | 1016 | 233
> 89 | < 100 | 1000 to 5000 | 70 to 89 | < 100 | < 1000 | < 1000 | < 70 | O=C(Nc1ccc(C(=O)c2ccc3ncc(N4CCNCC4)nc3c2)cc1)Nc1cccc(C(F)(F)F)c1 [Compound C17, 1-(4-(3-(piperazin-1-yl)quinoxaline-6-carbonyl)phenyl)-3-(3-(trifluoromethyl)phenyl)urea] |  |  | 
> 89 |  | 1000 to 5000 | > 89 | < 100 | < 1000 | < 1000 | < 70 | O=C(Nc1cccc(C(F)(F)F)c1)Nc1ccc(C(=O)c2ccc3ncc(N4CCNCC4)nc3c2)c(F)c1 [Compound C21, 1-(3-fluoro-4-(3-(piperazin-1-yl)quinoxaline-6-carbonyl)phenyl)-3-(3-(trifluoromethyl)phenyl)urea] |  |  | 
